Earlier results, collected in patent publication US9206466B2, “Compositions and methods for regulating peptidyltransferase activity and uses thereof” (University of Maryland, priority 2004, dated 2015).

Columns and labels:
−1 PRF = conditions: yeast; Dinman et al., 1997
killer virus = conditions: yeast; Dinman et al., 1997

Compound: CSC[S@+]([O-])C[C@H](CO)NC(=O)/C=C/c1c(C)[nH]c(=O)[nH]c1=O [sparsomycin]
- −1 PRF efficiencies (−1 PRF): promoted increased −1 PRF efficiencies
- maintenance of the killer virus (killer virus): loss of the killer virus
